Assay results reported in patent publication EP0049683A2, “Imidazo-rifamycines, process for their preparation, pharmaceutical preparations containing them and their use” (CIBA-GEIGY AG, priority 1980, dated 1982).

Experiments:
[1] = assay type: physicochemical
Method: Eine unter Stickstoff gerührte Suspension von 15,50 g 4-Dimethylamino-imidazolo[4,5-c]rifamycin SV (1) in 150 ml Wasser wird tropfenweise mit 20,0 ml einer 1-N-wässrigen Natriumhydroxid-Lösung (0,987 Aequivalent) versetzt. Die resultierende gelbgefärbte Lösung wird filtriert und das Filtrat der Gefriertrocknung unterworfen. […] Für C40H51N4O11Na (MG 786,85) berechnet 2,92% Na; gefunden 2,87% Na.
Eine gerührte Suspension von 8,75 g 4-(4-Isobutylpiperazinyl)-imidazolo[4,5-c]rifamycin SV (4) in 165 ml Wasser wird mit 10,0 ml 1-normaler wässriger Salzsäure (0,985 Aequivalent) versetzt. Das Gemisch wird filtriert, und das Filtrat der Gefriertrocknung unterworfen. Das erhaltene 4-(4-Isobutylpiperazinyl)-imidazolo[4,5-c]rifamycin SV-Hydrochlorid bildet ein wasserlösliches, gelbes amorphes Pulver. Für C46H63N5O11 · HC1 (898,49) berechnet: 3,95% Cl, gefunden: 4,08% Cl.

[2] = assay type: physicochemical; remark: listed apart in the source
Method: Eine Lösung von 0,5 g 3-Dimethylaminomethylenamino-Rifamycin S in 5 ml Methanol wird mit 2 ml einer 10 % (G/V) wässerigen Natriumbicarbonatlösung und 5 ml einer 10 % (G/V) Lösung von K4[Fe(CN)6] Kaliumferrocyanid) in Wasser versetzt, die Lösung 3 Minuten intensiv gerührt und mit je 20 ml Wasser und Chloroform verdünnt. Die Chloroformphase wird abgetrennt und die wässerige Phase noch zweimal mit Chloroform extrahiert. Die vereinigten Chloroformextrakte werden getrocknet und eingedampft, wodurch 3-Dimethylaminomethylenamino-Rifamycin SV als gelbes Pulver resultiert.

Row | Compound | Löslichkeit in Wasser [1] | Stabilität beim Stehen in einer Lösung [2]
1 | COC1C=COC2(C)Oc3c(C)c(O)c4c(O)c(c5[nH]c(N6CCN(CC(C)C)CC6)nc5c4c3C2=O)NC(=O)C(C)=CC=CC(C)C(O)C(C)C(O)C(C)C(OC(C)=O)C1C.Cl (stereo not drawn) [4-(4-Isobutylpiperazinyl)-imidazolo[4,5-c]rifamycin SV-Hydrochlorid] | wasserlösliches | 
2 | 3-Dimethylaminomethylenamino-Rifamycin SV [Beispiel 78A] |  | sehr schnell wieder zum Chinon durch Luftsauerstoffoxidation umgewandelt
3 | 4-Dimethylamino-imidazolo[4,5-c]rifamycin SV-Natriumsalz | in Wasser klar lösliches | 
